One molecule from patent US5051534A, “Novel cyclopropyl squalene derivatives and their use as inhibitors of cholesterol synthesis” (Merrell Dow Pharmaceuticals Inc., priority 1990, dated 1991) can be followed below.

SMILES strings stand for the structures.

In general, IC50 refers to the concentration that inhibits the measured activity by half.

The target in the experiment is T1, squalene epoxidase (Rattus norvegicus, UniProt P52020).
T1 construct: Microsomes, prepared by ultracentrifugation of homogenates of rat liver; from tissue; host or cells: rat liver microsomes, incubated with the high speed supernatant fraction
The experiment can be described thus: Inhibition of squalene epoxidase in rat liver microsomes (3H-squalene incubation, TLC or HPLC radioactivity). The class given is biochemical. The conditions noted are these: 37° C., 45 minutes, 60 μM 3H-squalene, 2.0 mM NADPH, 0.01 mM FAD, compounds tested at >0.0 to 100.0 μM. The method, then: The following assay is used to test compounds for their ability to inhibit 2,3-oxidosqualene lanosterol-cyclase (squalene cyclase) or squalene epoxidase. Microsomes, prepared by ultracentrifugation of homogenates of rat liver, are incubated at 37° C. for 45 minutes in the presence of 60 μM ^3 H-squalene, 2.0 mM NADPH, 0.01 mM FAD, and the high speed supernatant fraction from the microsomal preparation. Blanks, in which NADPH has been omitted, are run simultaneously with the test compounds. Compounds are tested at concentrations of >0.0 to 100.0 μM.
Following incubation the samples are saponified, standards are added to each sample, and then the reaction products are extracted into hexane. The hexane extracts are dried and then the dried extracts are redissolved in chloroform. […] Spots containing the reaction products are scraped from the TLC plates and counted for radioactivity in a scintillation counter. An IC50 is finally calculated.
Incubation reactions are stopped by the addition of chloroform:methanol, standards are added and the reaction products and standards are extracted into chloroform. […] Chromatographic peaks containing reaction products are monitored for radioactivity with a flow-through scintillation counter connected in series with the HPLC column. An IC50 (Inhibitory Concentration) is calculated based on the radioactivity in controls and samples. […]

T1 sequence (P52020 whole entry): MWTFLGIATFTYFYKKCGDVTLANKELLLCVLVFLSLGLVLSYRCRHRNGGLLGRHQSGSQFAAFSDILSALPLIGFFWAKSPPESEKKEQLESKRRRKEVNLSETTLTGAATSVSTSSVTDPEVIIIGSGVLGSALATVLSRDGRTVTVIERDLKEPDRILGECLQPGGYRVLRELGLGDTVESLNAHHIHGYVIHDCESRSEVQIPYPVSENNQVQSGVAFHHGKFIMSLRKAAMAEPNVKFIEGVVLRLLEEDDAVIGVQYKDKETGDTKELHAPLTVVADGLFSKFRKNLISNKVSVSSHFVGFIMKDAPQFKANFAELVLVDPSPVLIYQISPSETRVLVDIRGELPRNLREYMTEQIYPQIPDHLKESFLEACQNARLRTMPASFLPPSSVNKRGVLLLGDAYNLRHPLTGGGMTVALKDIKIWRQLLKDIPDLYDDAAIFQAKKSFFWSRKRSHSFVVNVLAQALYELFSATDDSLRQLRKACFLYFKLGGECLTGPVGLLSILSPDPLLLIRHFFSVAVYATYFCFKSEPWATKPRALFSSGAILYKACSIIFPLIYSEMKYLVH

On to `CC(C)=CCC/C(C)=C/CC/C(C)=C/CC/C=C(\C)CC/C=C(\C)CCCOC1CC1` [Compound 1, 4,8,13,17,21-Pentamethyl-4,8,12,16,20-docosapentaen-l-ol cyclopropyl ether], for which the IC50 amounted to 42 µM.
